In one series the test system is RCC4 cells. Briefly: XTT assay in VHL-deficient RCC4 cells. Type of series: cell-based. The conditions noted are these: Homo sapiens, 96 h, XTT assay, VHL-deficient RCC4 cells, four days. The procedure: (§1) Cell Viability and XTT assays. For cell viability, 100,000 cells were plated in a 12-well plate. The following day, 1.25 μM STF-62247 was added in the presence or absence of 1 mM 3-MA for 24 hours at 37° C. Cells were trypsinized and counted by trypan blue exclusion. For XTT assays, 5000 RCC4 with and without VHL cells or 2,500 SN12C with and without VHL shRNA cells were plated in 96-well plates. The following day, vehicle (DMSO), STF-62247 or each of 19 analogs were added to media by serial dilution. Four days later, the media was aspirated and XTT solution containing 0.3 mg/ml of XTT (Sigma Chemical Co) in Phenol Red-free media, 20% FCS and 2.65 mg/ml N-methyl dibenzopyrazine methyl sulfate (PMS) was added to the cells and incubated at 37° C. for 1-2 hours. Metabolism of XTT was quantified by measuring the absorbance at 450 nm on a plate reader.
For orientation: Tetrazolium assays rely on reduction of a dye to a coloured formazan, in cell work by metabolically active cells.

A further series has as its system RCC4/VHL cells. Briefly: XTT assay, RCC4/VHL versus RCC4 cells (selectivity ratio). Type of series: cell-based. The conditions noted are these: selectivity ratio, IC50 in RCC4/VHL cells/IC50 in RCC4 cells. The procedure:
as §1
A. RCC4 and RCC4/VHL were treated with 1.25 μM of each 19 analogs for 20 hours and the presence of vacuoles was examined under light microscopy. B. Western blot for LC3 after treatment with each compound. Tubulin was used as loading control. Ratio is the relative from the IC50 in RCC4/VHL cells/IC50 in RCC4 cells. C. Acidic vesicle organelles (AVO) measured by FACS analysis in cells treated with 1.25 μM of STF-62247 or with compounds 21, 15, 25, 47, and 53 and stained with acridine orange.

Usually melting point stands for the temperature of the solid-liquid transition. `Cc1cccc(Nc2nc(-c3ccnc(N4CCN(C)CC4)c3)cs2)c1` [Compound 198, N-(3-Methylphenyl)-4-[2-(4-methyl-1-piperazinyl)-4-pyridinyl]-1,3-thiazol-2-amine] displayed a melting point of 141 to 143 °C.

The compound `Cc1cccc(Nc2nc(-c3ccnc(N4CCOCC4)c3)cs2)c1` [Compound 197, N-(3-Methylphenyl)-4-[2-(4-morpholinyl)-4-pyridinyl]-1,3-thiazol-2-amine] returned a melting point of 190 to 191 °C.

As usually defined, the IC50 is the concentration that gives 50% inhibition. In the case of `Cc1cccc(Nc2nc(-c3ccncc3C)cs2)c1` [Compound 166, N-(3-Methylphenyl)-4-(3-methyl-4-pyridinyl)-1,3-thiazol-2-amine], in the series on RCC4 cells (Table 2), the IC50 amounted to 5.2 µM. Moreover, the Ratio with RCC4/VHL cells (Table 2) was >7.7.

The compound `Brc1cccc(Nc2nc(-c3ccncc3)cs2)c1` [Compound 123, N-(3-Bromophenyl)-4-(4-pyridinyl)-1,3-thiazol-2-amine] yielded an IC50 in the series on RCC4 cells (Table 1) of 12.4 µM. Besides, the Ratio in the series on RCC4/VHL cells (Table 1) is >3.2.

In turn, `CCN(c1cccc(C)c1)c1nc(-c2ccncc2)cs1` [Compound 96, N-Ethyl-N-(3-methylphenyl)-4-(4-pyridinyl)-1,3-thiazol-2-amine] had an IC50 in the series with RCC4 cells (Table 1) of 40 µM. Moreover, the Ratio in the series with RCC4/VHL cells (Table 1) turned out to be 0.6.

`Fc1ccc(Nc2nc(-c3ccncc3)cs2)cc1` [Compound 33, N-(4-Fluorophenyl)-4-(4-pyridinyl)-1,3-thiazol-2-amine] came in with an IC50 with RCC4 cells (Table 1) of 6 µM. Also, the Ratio in the series with RCC4/VHL cells (Table 1) is >7.

`Cc1cccc(Nc2nc(-c3ccncc3)c(C)s2)c1` [Compound 71, 5-Methyl-N-(3-methylphenyl)-4-(4-pyridinyl)-1,3-thiazol-2-amine]: the IC50 with RCC4 cells (Table 1) came out at 10 µM. In addition, the Ratio with RCC4/VHL cells (Table 1) is >4.

Turning to `Cc1ccc(Nc2nc(-c3ccncc3)cs2)cc1O` [Compound 49, 2-Methyl-5-{[4-(4-pyridinyl)-1,3-thiazol-2-yl]amino}phenol], the midpoint of inhibition in the series on RCC4 cells (Table 1), the IC50, lay at 12 µM. Besides, the Ratio in the series with RCC4/VHL cells (Table 1) came to 4.6.

`C#Cc1cc(-c2csc(Nc3cccc(C)c3)n2)ccn1` [Compound 159, 4-(2-Ethynyl-4-pyridinyl)-N-(3-methylphenyl)-1,3-thiazol-2-amine]: in the series with RCC4 cells (Table 2), inhibition was half-maximal at 17.8 µM (IC50). The Ratio in the series on RCC4/VHL cells (Table 2) is >2.2.

`Cc1cccc(Nc2nc(-c3ccnc(N(C)C)c3)cs2)c1` [Compound 199, N,N-Dimethyl-4-{2-[(3-methylphenyl)amino]-1,3-thiazol-4-yl}-2-pyridinamine] had a melting point of 148 to 150 °C.

In the series with RCC4 cells (Table 1), `Cc1cccc(Nc2nc(-c3ccccn3)cs2)c1` [Compound 68, N-(3-Methylphenyl)-4-(2-pyridinyl)-1,3-thiazol-2-amine] had an IC50 of 37 µM. Besides, in the series on RCC4/VHL cells (Table 1), the Ratio was found to be 0.9.

The compound `CC(=O)Nc1cnccc1-c1csc(Nc2cccc(C)c2)n1` [Compound 183] displayed an IC50 in the series with RCC4 cells (Table 2) of 33.3 µM. For the same compound, in the series on RCC4/VHL cells (Table 2), the Ratio came to 1.0.

As to `Cc1ccc(Nc2nc(-c3ccncc3)cs2)cc1C` [Compound 43, N-(3,4-Dimethylphenyl)-4-(4-pyridinyl)-1,3-thiazol-2-amine], half-maximal inhibition with RCC4 cells (Table 1) (IC50) was put at 6.5 µM. Moreover, in the series on RCC4/VHL cells (Table 1), the Ratio is 6.4.

In the series on RCC4 cells (Table 1), `CN(C)CCc1ccc(Nc2nc(-c3ccncc3)cs2)cc1` [Compound 36, N-{4-[2-(Dimethylamino)ethyl]phenyl}-4-(4-pyridinyl)-1,3-thiazol-2-amine] gave an IC50 of 50 µM. Further, the Ratio in the series on RCC4/VHL cells (Table 1) was 1.2.

For `O=P(O)(O)Oc1ccc(Nc2nc(-c3ccncc3)cs2)cc1` [Compound 41, 4-{[4-(4-Pyridinyl)-1,3-thiazol-2-yl]amino}phenyl Dihydrogen Phosphate], the IC50 with RCC4 cells (Table 1) turned out to be 3 µM. Further, the Ratio in the series with RCC4/VHL cells (Table 1) came out at 6.3.

For the compound `Clc1ccccc1Nc1nc(-c2ccncc2)cs1` [Compound 115, N-[2-Chlorophenyl]-4-(4-pyridinyl)-1,3-thiazol-2-amine], in the series on RCC4 cells (Table 1), half-maximal inhibition (IC50) required 27.6 µM. In addition, the Ratio in the series with RCC4/VHL cells (Table 1) was >1.4.

For the compound `Fc1ccccc1Nc1nc(-c2ccncc2)cs1` [Compound 113, N-(2-Fluorophenyl)-4-(4-pyridinyl)-1,3-thiazol-2-amine], in the series on RCC4 cells (Table 1), the IC50 amounted to 14.3 µM. Moreover, the Ratio in the series on RCC4/VHL cells (Table 1) is >2.8.

The compound `COc1ccccc1Nc1nc(-c2ccncc2)cs1` [Compound 109, N-(2-Methoxyphenyl)-4-(4-pyridinyl)-1,3-thiazol-2-amine] came in with a concentration for half-maximal inhibition (IC50) with RCC4 cells (Table 1) of 33.4 µM. Besides, the Ratio with RCC4/VHL cells (Table 1) is listed as >1.2.

`Cc1cccc(Nc2nc(-c3ccncc3)c(CN3CCCCC3)s2)c1` [Compound 85, N-(3-Methylphenyl)-5-(1-piperidinylmethyl)-4-(4-pyridinyl)-1,3-thiazol-2-amine] yielded an IC50 in the series on RCC4 cells (Table 1) of 13 µM. Moreover, in the series with RCC4/VHL cells (Table 1), the Ratio is 1.9.

With `Cc1cccc(Nc2nc(-c3ccncc3Cl)cs2)c1` [Compound 174, 4-(3-Chloro-4-pyridinyl)-N-(3-methylphenyl)-1,3-thiazol-2-amine], the IC50 in the series with RCC4 cells (Table 2) came to 2.9 µM. In the series with RCC4/VHL cells (Table 2), the Ratio is >13.8.

With `COc1ccc(Nc2nc(-c3ccncc3)cs2)cc1` [Compound 27, N-(4-Methoxyphenyl)-4-(4-pyridinyl)-1,3-thiazol-2-amine], the IC50 in the series on RCC4 cells (Table 1) is 14 µM. Besides, the Ratio in the series on RCC4/VHL cells (Table 1) came out at 3.6.

The compound `CC(=O)c1ccc(Nc2nc(-c3ccncc3)cs2)cc1` [Compound 131, 1-(4-{[4-(4-Pyridinyl)-1,3-thiazol-2-yl]amino}phenyl)ethanone] yielded an IC50 in the series with RCC4 cells (Table 1) of 3.8 µM. Further, in the series with RCC4/VHL cells (Table 1), the Ratio was 3.1.

In turn, `Cc1cccc(Nc2nc(-c3ccncc3)c(C(N)=O)s2)c1` [Compound 91, 2-[(3-Methylphenyl)amino]-4-(4-pyridinyl)-1,3-thiazole-5-carboxamide] gave an IC50 in the series with RCC4 cells (Table 1) of 19.2 µM. Moreover, the Ratio in the series with RCC4/VHL cells (Table 1) is >2.0.

With `Cc1cc(C)cc(Nc2nc(-c3ccncc3)cs2)c1` [Compound 45, N-(3,5-Dimethylphenyl)-4-(4-pyridinyl)-1,3-thiazol-2-amine], half-maximal inhibition in the series with RCC4 cells (Table 1) (IC50) required 4.5 µM. Also, the Ratio in the series with RCC4/VHL cells (Table 1) was >9.

Take `Cc1cccc(Nc2nc(-c3ccnc(Cl)c3)cs2)c1` [Compound 150, 4-(2-Chloro-4-pyridinyl)-N-(3-methylphenyl)-1,3-thiazol-2-amine]: the concentration for half-maximal inhibition (IC50) in the series with RCC4 cells (Table 2) is 2.2 µM. Besides, in the series on RCC4/VHL cells (Table 2), the Ratio amounted to 3.8.

Consider `Cc1cccc(Nc2nc(-c3ccnc(C#CCO)c3)cs2)c1` [Compound 161, 3-(4-{2-[(3-Methylphenyl)amino]-1,3-thiazol-4-yl}-2-pyridinyl)-2-propyn-1-ol], for which the IC50 in the series with RCC4 cells (Table 2) was 9.3 µM. The Ratio in the series on RCC4/VHL cells (Table 2) amounted to 1.6.

As to `O=P(O)(O)Oc1cccc(Nc2nc(-c3ccncc3)cs2)c1` [Compound 39, 3-{[4-(4-Pyridinyl)-1,3-thiazol-2-yl]amino}phenyl Dihydrogen Phosphate], the IC50 in the series with RCC4 cells (Table 1) was determined as 29 µM. For the same compound, the Ratio in the series on RCC4/VHL cells (Table 1) stood at 1.1.

For the compound `Cc1cccc(Nc2nc(-c3ccnc(CCCO)c3)cs2)c1` [Compound 162, 3-(4-{2-[(3-Methylphenyl)amino]-1,3-thiazol-4-yl}-2-pyridinyl)-1-propanol], the IC50 with RCC4 cells (Table 2) was 5.2 µM. Further, the Ratio in the series on RCC4/VHL cells (Table 2) is given as >7.7.

In turn, `Cc1cccc(Nc2nc(-c3ccncc3F)cs2)c1` [Compound 170, 4-(3-Fluoro-4-pyridinyl)-N-(3-methylphenyl)-1,3-thiazol-2-amine] returned an IC50 in the series with RCC4 cells (Table 2) of 2 µM. Moreover, in the series on RCC4/VHL cells (Table 2), the Ratio is given as >20.

In turn, `Oc1ccccc1Nc1nc(-c2ccncc2)cs1` [Compound 107, 2-{[4-(4-Pyridinyl)-1,3-thiazol-2-yl]amino}phenol] displayed an IC50 with RCC4 cells (Table 1) of 12.8 µM. Moreover, the Ratio in the series on RCC4/VHL cells (Table 1) is >3.1.

Compound `c1ccc(Nc2nc(-c3ccncc3)cs2)cc1` [Compound 3, N-Phenyl-4-(4-pyridinyl)-1,3-thiazol-2-amine] yielded an IC50 in the series with RCC4 cells (Table 1) of 7 µM. Besides, in the series with RCC4/VHL cells (Table 1), the Ratio is >10.

In turn, `C#Cc1cnccc1-c1csc(Nc2cccc(C)c2)n1` [Compound 184, 4-(3-Ethynyl-4-pyridinyl)-N-(3-methylphenyl)-1,3-thiazol-2-amine] returned an IC50 in the series with RCC4 cells (Table 2) of 1.35 µM. Moreover, the Ratio in the series on RCC4/VHL cells (Table 2) was 4.4.

Compound `Clc1ccc(Nc2nc(-c3ccncc3)cs2)cc1Cl` [Compound 61, N-(3,4-Dichlorophenyl)-4-(4-pyridinyl)-1,3-thiazol-2-amine] returned an IC50 with RCC4 cells (Table 1) of 13.5 µM. The Ratio with RCC4/VHL cells (Table 1) was >3.

Turning to `Cc1cccc(Nc2nc(-c3ccncc3)c(CCCN3CCOCC3)s2)c1` [Compound 82, N-(3-Methylphenyl)-5-[3-(4-morpholinyl)propyl]-4-(4-pyridinyl)-1,3-thiazol-2-amine], the IC50 in the series with RCC4 cells (Table 1) is 5.8 µM. Moreover, in the series with RCC4/VHL cells (Table 1), the Ratio is 1.6.

In the series on RCC4 cells (Table 2), `Cc1cccc(Nc2nc(-c3ccncc3[N+](=O)[O-])cs2)c1` [Compound 181] came in with an IC50 of 8.2 µM. Also, in the series with RCC4/VHL cells (Table 2), the Ratio was 4.1.

Turning to `Cc1cccc(Nc2nc(-c3ccncc3)c(CO)s2)c1` [Compound 74, [2-[(3-Methylphenyl)amino]-4-(4-pyridinyl)-1,3-thiazol-5-yl]methanol], the midpoint of inhibition in the series with RCC4 cells (Table 1), the IC50, lay at 7 µM. The Ratio in the series with RCC4/VHL cells (Table 1) is given as 2.4.

The values are drawn from patent US20110105436A1, “HETEROARYL COMPOUNDS, COMPOSITIONS, AND METHODS OF USE IN CANCER TREATMENT” (AUCKLAND UNISERVICES LIMITED, priority 2008, published 2011).
